According to US9320773B2, “Compounds and therapeutic applications related to inhibition of dendritic cell immunoreceptor (DCIR) activity and signaling events” (priority 2010, dated 2016):

Experiments:
[1] = system: DCIR expression in CD4+ T cells; test: DCIR expression in CD4+ T cells after H2O2 or other apoptosis inducers (flow cytometry); assay type: cell-based, human
Protocol: Next, DCIR expression was assessed by flow cytometry. Data shown represent the ratio of DCIR expression over basal expression. The ratio is calculated from the means±SD of triplicate samples from three independent experiments. […] FIG. 16A: […] Expression of DCIR is shown as a dotted line, whereas the continuous line represents staining obtained with an isotype-matched irrelevant control Ab. Data shown correspond to a single experiment representative of 3 independent experiments. FIG. 16B: […] Thereafter, DCIR surface expression and caspase activation were monitored by flow cytometric analysis using a double-staining method consisting of FITC-VAD-FMK followed by the R-PE-conjugated anti-DCIR. Data shown correspond to a single experiment representative of 4 independent experiments. Cell surface expression of DCIR was monitored by flow cytometric analysis (Epics ELITE ESP, Coulter Electronics, Burlington, Canada). […] After washing, the cells were incubated with PE-labeled anti-DCIR (0.25 μg) for 45 min at 4° C. and then washed twice with PBS and 0.5% BSA. Non-specific staining was determined by using an isotype-matched irrelevant control antibody. After two final washes with PBS, cells were fixed in 2% paraformaldehyde for 30 min and analyzed.

[2] = system: CD4+ T cells; test: Cell toxicity / viability of CD4+ T cells; assay type: cell-based, human; conditions: mitogen-stimulated CD4+ T cells; data not shown
[3] = system: HIV-1 NL4-3 in CD4+ T cells
Protocol: Target CD4^+ T cells (1×10^6) were treated for 16 h with H2O2 (30 μM) to induce surface expression of DCIR. FIG. 17A: Cells were next exposed to NL4-3 (100 ng of p24) for 1 h at 37° C., extensively washed to remove unabsorbed virons before assessing the p24 content. FIG. 17B: Cells were first incubated with NL4-3 (100 ng of p24) for 2 h at 37° C., washed extensively to remove input virus and cultured in complete culture RPMI-1640 medium supplemented with rhIL-2 for the indicated number of days. Cell-free supernatants were collected and assayed for the p24 content. FIG. 17C: Cells were exposed to NL4-3 (100 ng of p24) for 2 h at 37° C., next washed extensively to remove input virus, and finally co-cultured with autologous CD4^+ T cells in complete culture RPMI-1640 medium supplemented with rhIL-2 for the indicated number of days. Cell-free supernatants were collected and assayed for the p24 content. Virus production at day 2 is depicted in the small inserts (FIGS. 17B and C). FIG. 17D: Cells were exposed to NL4-3 (100 ng of p24) for 2 h at 37° C., washed extensively to remove input virus, and maintained in complete culture medium supplemented with rhIL-2 for 3 days. Next, DCIR-negative and -positive cells (used as transmitter cells) were isolated with magnetic beads and co-cultured with uninfected CD4^+ T cells (used as recipient cells). […]

[4] = system: DC-SIGN; conditions: induction of apoptosis by H2O2; data not shown
[5] = system: CD4; conditions: induction of apoptosis by H2O2; data not shown

## OO [H2O2, Hydrogen peroxide]
[1]; CD4+ T cells treated with inducer, H2O2 20 to 60 μM, result in words
  DCIR expression: dose-dependent increased
[1]; H2O2-treated cells (30 μM, 16 h), n=3
  DCIR expression in activated CD4+ T cells: 21.4±3.4%
[1]; H2O2 treatment, FITC-VAD-FMK and anti-DCIR double staining, n=3
  apoptotic cells also positive for DCIR: 12.2±3.2%
[2]
  doses at which cell viability was reduced: ≥ 45 µM
[3]
  virus production: statistically significant increase
[3]; CD4+ T cells exposed to H2O2 (30 μM, 16 h), 3.8±0.8 without H2O2
  virus binding and entry, p24: 12.5±1.8 ng/ml of p24
[4]
  surface expression of DC-SIGN: not modulated
[5]
  surface expression of CD4: not modulated
